Where a name gives a salt, the structure may show the parent alone.
Columns and labels:
[1] = In vitro elution of paclitaxel from PHIL® solution; type: physicochemical; conditions: 50 mg in 1 mL 25 wt % PHIL®, 199 mL 45:55 acetonitrile/10 mM potassium phosphate buffer pH 4.5, room temperature
Procedure: Fifty mg of paclitaxel are dissolved in 1 mL of 25 wt % PHIL® solution, which includes triiodophenol-(lactide-co-glycolide) acrylate and hydroxyethyl methacrylate in dimethyl sulfoxide. The 1 mL of 25 wt % PHIL®/Paclitaxel solution is precipitated in 199 mL of a dissolution medium, consisting of 45:55 acetonitrile/10 mM potassium phosphate buffer solution pH 4.5 at room temperature. At 2, 5, 9, 14, 20, 27, 35, 44, 54, 65 and 90 minutes, 1 mL of the supernatant is pipetted out and placed in a HPLC vial. The concentration of paclitaxel in each sample is determined using an Agilent 1100 HPLC system. The chromatographic analysis is performed with an Agilent Extended-C18 column (4.6 mm×50 mm, 3.5 μm). The mobile phase includes 50% acetonitrile and 50% 5% acetonitrile in water delivered at 1 mL/min. The injection volume is 10 μL and the wavelength of the ultraviolet detector was 227 nm. The calibration curve is prepared from 5 to 500 ppm of paclitaxel. The amount of paclitaxel released and relative percentage are calculated from the concentration data.

[2] = 50 mg in 1 mL 25 wt % PHIL®, 99 mL distilled water, room temperature
Procedure: Fifty mg of cyclophosphamide are dissolved in 1 mL of 25 wt % PHIL® solution, which includes triiodophenol-(lactide-co-glycolide) acrylate and hydroxyethyl methacrylate in dimethyl sulfoxide. The 1 mL of 25 wt % PHIL®/cyclophosphamide solution is precipitated in 99 mL of a dissolution medium, including distilled water at room temperature. At 2, 5, 9, 14, 20, 27, 35, 44, 54, 65 and 90 minutes, 1 mL of the supernatant is pipetted out and placed in a HPLC vial.
(§1) The concentration of cyclophosphamide in each sample is determined using an Agilent 1100 HPLC system. The chromatographic analysis is performed with a Primesep 100 column (3.2 mm×50 mm, 3 μm). The mobile phase includes 5% acetonitrile and 95% HPLC water with 5% acetonitrile delivered at 1 mL/min. The injection volume is 25 μL and the wavelength of the ultraviolet detector is 197 nm. The calibration curve is prepared from 10 to 1000 ppm of cyclophosphamide. The amount of cyclophosphamide released and relative percentage are calculated from the concentration data.

[3] = In vitro elution of sorafenib from PHIL® solution; type: physicochemical; conditions: 50 mg in 1 mL 25 wt % PHIL®, 999 mL 70:30 acetonitrile/10 mM potassium phosphate buffer pH 4.3, room temperature
Procedure: The 1 mL of 25 wt % PHIL®/sorafenib solution is precipitated in 999 mL of a dissolution medium, including 70:30 acetonitrile/10 mM potassium phosphate buffer solution pH 4.3 at room temperature.
The chromatographic analysis is performed with an Agilent Extended-C18 column (4.6 mm×50 mm, 3.5 μm). The mobile phase includes 50% acetonitrile and 50% 10 mM potassium phosphate buffer solution pH 3 with 5% acetonitrile and 7.2 mM triethylamine delivered at 1 mL/min. The injection volume is 3 μL and the wavelength of the ultraviolet detector is 263 nm. The calibration curve is prepared from 1 to 100 ppm of sorafenib.

[4] = In vitro elution of carmustine from PHIL® solution; type: physicochemical; conditions: 50 mg in 1 mL 25 wt % PHIL®, 99 mL distilled water, room temperature
Procedure: Fifty mg of carmustine are dissolved in 1 mL of 25 wt % PHIL® solution, which includes triiodophenol-(lactide-co-glycolide) acrylate and hydroxyethyl methacrylate in dimethyl sulfoxide. The 1 mL of 25 wt % PHIL®/carmustine solution is precipitated in 99 mL of a dissolution medium, including distilled water at room temperature. At 2, 5, 9, 14, 20, 27, 35, 44, 54, 65 and 90 minutes, 1 mL of the supernatant is pipetted out and placed in a HPLC vial.
as §1, with “carmustine” for “cyclophosphamide”, “includes 10% methanol and 90% 10 mM potassium phosphate buffer solution pH 3 with” for “includes”, “7.2 mM triethylamine” for “95% HPLC water with 5% acetonitrile”, “3” for “25”, “230” for “197”, “carmustine.” for “cyclophosphamide.”

[5] = In vitro elution of doxorubicin from PHIL® solution; type: physicochemical; conditions: 50 mg doxorubicin hydrochloride in 1 mL 25 wt % PHIL®, 99 mL 10 mM potassium phosphate buffer pH 4.0, room temperature
Procedure: Fifty mg of doxorubicin hydrochloride are dissolved in 1 mL of 25 wt % PHIL® solution, which includes triiodophenol-(lactide-co-glycolide) acrylate and hydroxyethyl methacrylate in dimethyl sulfoxide. The 1 mL of 25 wt % PHIL®/doxorubicin solution is precipitated in 99 mL of a dissolution medium, including 10 mM potassium phosphate buffer solution pH 4.0 at room temperature. At 2, 5, 9, 14, 20, 27, 35, 44, 54, 65 and 90 minutes, 1 mL of the supernatant is pipetted out and placed in a HPLC vial.
The concentration of doxorubicin in each sample is determined using an Agilent 1100 HPLC system. The chromatographic analysis is performed with an Agilent Extended-C18 column (4.6 mm×50 mm, 3.5 μm). The mobile phase includes 18% acetonitrile and 82% 10 mM potassium phosphate buffer solution pH 3 with 5% acetonitrile and 7.2 mM triethylamine delivered at 1 mL/min. The injection volume is 3 μL and the wavelength of the ultraviolet detector is 234 nm. The calibration curve is prepared from 10 to 1000 ppm of doxorubicin. The amount of doxorubicin released and relative percentage are calculated from the concentration data.

[6] = In vitro elution of oxaliplatin from PHIL® solution (ICP-MS platinum); type: physicochemical; conditions: 50 mg in 1 mL 25 wt % PHIL®, 50 mL PBS replaced at each time point, room temperature
Procedure: The remaining supernatant is poured out and the precipitates are mixed with a fresh 50 mL of the dissolution medium at room temperature.
Samples are prepared for ICP-MS analysis to measure the platinum concentration in the supernatant by mixing a sample portion (1 mL) with 4 mL of 2% nitric acid (5-fold dilution) or a sample portion (2.5 mL) with 0.05 mL of 2% nitric acid (undiluted). The calibration curve is prepared from 0.5 to 100 ppm of platinum.

[7] = system: Canine Liver; test: In vivo evaluation of PHIL LV liquid embolic with irinotecan in canine liver
Procedure: A canine is anesthetized and a 6 Fr sheath is inserted into the femoral artery via a cutdown. A 6 Fr Glidecath is advanced retrograde into the celiac trunk and further into the hepatic artery. Following angiography, a Scepter balloon (4 mm×10 mm) is advanced through the Glidecath and into a branch of the hepatic artery. […] Blood is collected at 5, 15, 30, 60, and 120 minutes post-embolization for irinotecan quantification.

[8] = In vitro elution of irinotecan from PHIL® solution; type: physicochemical; conditions: 50 mg irinotecan hydrochloride in 1 mL 25 wt % PHIL®, 99 mL 10 mM potassium phosphate buffer pH 4.0, room temperature
Procedure: The chromatographic analysis is performed with an Agilent Extended-C18 column (4.6 mm×50 mm, 3.5 μm). The mobile phase includes of 18% acetonitrile and 82% 10 mM potassium phosphate buffer solution pH 3 with 5% acetonitrile and 7.2 mM triethylamine delivered at 1 mL/min. The injection volume is 2 μL and the wavelength of the ultraviolet detector is 223 nm.

[9] = In vitro elution of gemcitabine from PHIL® solution; type: physicochemical; conditions: 50 mg in 1 mL 25 wt % PHIL®, 99 mL PBS, room temperature
Procedure: The chromatographic analysis is performed with an Agilent Extended-C18 column (4.6 mm×50 mm, 3.5 μm). […] The injection volume is 3 μL and the wavelength of the ultraviolet detector is 275 nm.

[10] = In vitro elution of sunitinib from PHIL® solution; type: physicochemical; conditions: 50 mg sunitinib malate in 1 mL 25 wt % PHIL®, 999 mL phosphate buffered saline
Procedure: The 1 mL of 25 wt % PHIL®/sunitinib solution is precipitated in 999 mL of a dissolution medium, including phosphate buffered saline.
The chromatographic analysis is performed with an Agilent Extended-C18 column (4.6 mm×50 mm, 3.5 μm). The mobile phase includes 22% acetonitrile and 78% 10 mM potassium phosphate buffer solution pH 3 with 5% acetonitrile and 7.2 mM triethylamine delivered at 1 mL/min. The injection volume is 3 μL and the wavelength of the ultraviolet detector is 429 nm. The calibration curve is prepared from 1 to 100 ppm of sunitinib.

SMILES: CC(=O)O[C@H]1C(=O)[C@@]2(C)[C@H]([C@H](OC(=O)c3ccccc3)[C@]3(O)C[C@H](OC(=O)[C@H](O)[C@@H](NC(=O)c4ccccc4)c4ccccc4)C(C)=C1C3(C)C)[C@]1(OC(C)=O)CO[C@@H]1C[C@@H]2O [paclitaxel]
- total amount of paclitaxel eluted ([1]; first 90 minutes): 38 mg per 1 mL of PHIL®
- sharp increase of paclitaxel eluted ([1]; within the first 9 minutes): 30 mg

SMILES: O=P1(N(CCCl)CCCl)NCCCO1 (centres unmarked) [cyclophosphamide]
- total amount of cyclophosphamide eluted ([2]; first 90 minutes): 38 mg per 1 mL of PHIL®
- sharp increase of cyclophosphamide eluted ([2]; within the first 35 minutes): 35 mg

SMILES: CNC(=O)c1cc(Oc2ccc(NC(=O)Nc3ccc(Cl)c(C(F)(F)F)c3)cc2)ccn1 [sorafenib]
- total amount of sorafenib eluted ([3]; first 90 minutes): 42 mg per 1 mL of PHIL®
- sharp increase of sorafenib eluted ([3]; within the first 2 minutes): 38 mg

SMILES: O=NN(CCCl)C(=O)NCCCl [carmustine]
- total amount of carmustine eluted ([4]; first 90 minutes): 26 mg per 1 mL of PHIL®
- sharp increase of carmustine eluted ([4]; within the first 35 minutes): 21 mg

SMILES: COc1cccc2c1C(=O)c1c(O)c3c(c(O)c1C2=O)C[C@@](O)(C(=O)CO)C[C@@H]3O[C@H]1C[C@H](N)[C@H](O)[C@H](C)O1 [doxorubicin, doxorubicin hydrochloride]
- total amount of doxorubicin eluted ([5]; first 90 minutes): 38 mg per 1 mL of PHIL®
- sharp increase of doxorubicin eluted ([5]; within the first 14 minutes): 29 mg

SMILES: O=C1[O][Pt]2([NH][C@@H]3CCCC[C@H]3[NH]2)[O]C1=O [oxaliplatin]
- total amount of oxaliplatin eluted ([6]; first 80 minutes): 41 mg per 1 mL of PHIL®
- sharp increase of oxaliplatin eluted ([6]; within the first 15 minutes): 37 mg

SMILES: CCc1c2c(nc3ccc(OC(=O)N4CCC(N5CCCCC5)CC4)cc13)-c1cc3c(c(=O)n1C2)COC(=O)[C@]3(O)CC [irinotecan, irinotecan hydrochloride]
- irinotecan in the blood, rapid rise to ([7]; 1.5 mL PHIL LV loaded with 75 mg irinotecan into hepatic artery branch, blood 5-120 minutes post-embolization): about 300 ppb
- tapering of irinotecan in the blood back to baseline ([7]; 1.5 mL PHIL LV loaded with 75 mg irinotecan, blood collected to 120 minutes): beyond the timescale of the experiment
- total amount of irinotecan eluted ([8]; first 90 minutes): 31 mg per 1 mL of PHIL®
- sharp increase of irinotecan eluted ([8]; within the first 9 minutes): 24 mg

SMILES: Nc1ccn([C@@H]2O[C@H](CO)[C@@H](O)C2(F)F)c(=O)n1 [gemcitabine]
- total amount of gemcitabine eluted ([9]; first 90 minutes): 43 mg per 1 mL of PHIL®
- sharp increase of gemcitabine eluted ([9]; within the first 9 minutes): 34 mg

SMILES: CCN(CC)CCNC(=O)c1c(C)[nH]c(/C=C2\C(=O)Nc3ccc(F)cc32)c1C [sunitinib, sunitinib malate]
- total amount of sunitinib eluted ([10]; first 65 minutes): 16 mg per 1 mL of PHIL®
- sharp increase of sunitinib eluted ([10]; within the first 2 minutes): 11 mg

— US20210290816A1, “LIQUID EMBOLICS” (MicroVention, Inc., priority 2020, published 2021)
